# Test results as given in patent publication US9146237B2, “In vitro assay method using immunological technique” (BASF Beauty Care Solutions France S.A.S., priority 2011, dated 2015).
# Key:
# [1] = tested on: intracellular procollagen; test: Procollagen assay by ELISA (PIPc kit) on collected lysis medium; format: cell-based, human; details: Example 4
# Procedure: A lysis step was carried out: 110 μl of an ammonium hydroxide solution at 20 mM for 10 minutes at room temperature and with stirring. The experiment was carried out without active ingredient on the one hand and with ascorbic acid solubilized in PBS at different concentrations from 0.1 to 100 μM. On the collected lysis medium, a procollagen assay (PIPc kit, TAKARA) by ELISA was carried out for determining the amount of intracellular procollagen (Table 4.2). A DNA assay (Picogreen kit, Invitrogen) was also carried out for rationalizing all of the measurements in each well to the quantity of viable cells. The amounts of collagen and procollagen measured were rationalized to the amount of DNA present in each well.
# [2] = tested on: type I collagen in the ECM; test: Assay of type I collagen directly on the ECM of fibroblast cultures (anticollagen I antibody, europium TRF); format: cell-based, human
# Procedure: After 48 hours of culture post-confluency, the culture medium was removed and discarded. A lysis step was carried out: 110 μl of an ammonium hydroxide solution at 20 mM for 10 minutes at room temperature and with stirring. The lysate was collected and analysed. The double-stranded DNA contained in the lysate was assayed by using the bisbenzimide method (Picogreen Kit, Invitrogen). The collagen in the ECM was assayed directly on the ECM by using an anticollagen I antibody. A secondary antibody conjugated to europium was used with a detection solution and the fluorescence was measured. (Delfia® kit—Perkin Elmer). The fluorescence results were rationalized relative to the amount of dsDNA measured. The experiment was carried out without active ingredient on the one hand and with ascorbic acid solubilized in PBS at different concentrations from 0.1 to 100 μM. The experiment was carried out according to the protocol described in example 1 with fibroblasts extracted from a biopsy from a donor. The cells at confluency were incubated in the presence of the active ingredients for 48 hours at 37° C. under 0.5% CO2 or without active ingredient (control) for 48 hours at 37° C. under 0.5% CO2. […]
smiles,measurement,setting,value
O=C1O[C@H]([C@@H](O)CO)C(O)=C1O [Ascorbic acid],Procollagen concentration in the intracellular compartment versus untreated control,[1],less than that observed with the untreated control
same,Effect on amount of collagen I in the ECM,"[2]; 50 μM, Example 6",significant increase in the amount of collagen I in the ECM
same,Concentration up to which the effect on content of collagen I in the ECM is dose-dependent (threshold effect),"[2]; Example 4, 0.1 to 100 μM",up to 50 μM
